Columns and labels:
[1] = tested on: HUVEC; test: Cell viability after hypothermia-rewarming stress (Neutral Red); assay type: cell-based, Human; conditions: 10 μM for 1 hour, 4° C. for 24 hours followed by 37° C. for 3 hours
Method: (§1) Human Umbilical Cord Endothelial Cells (HUVEC, Lonza CC-2519) were maintained on 1% gelatin-coated culture flasks in RPMI1640 medium containing 20% fetal bovine serum, 2 mM Glutamine (Sigma-Aldrich), 1% Penicillin-Streptomycin solution (Sigma-Aldrich) and 50 μg/ml Bovine Pituitary Extract (Invitrogen). HUVEC were passaged by trypsinization when the cultures reach a confluency of 70%. For all experiments, HUVEC were seeded at 0.6·10^5 cells/cm^2 and allowed to adhere for 24 hours.
HUVEC were pre-treated with BN-80933, SUL-138 or SUL-150 (all 10 μM) for 1 hour in a humidified incubator at 37° C. Following pre-treatment, HUVEC were placed in a cold room (2-8° C.) for 24 hours and subsequently placed back at 37° C. for a 3 hour rewarming period. After 1 hour of rewarming, cell culture medium was replaced by prewarmed and filtered 0.4 mg/mL Neutral Red (#N463 8, Sigma-Aldrich) in culture medium. After the remaining 2 hour rewarming period, HUVEC were washed with PBS and NRU was solubilized in 100 μL resorption solution (50% ethanol, 1% ascetic acid in dH2O). The absorbance was measured at a wavelength of 550 nm on a BioTek ELx808 plate reader. The recorded OD550 nm values were normalized to control samples that were maintained at 37° C. at all times, which were assumed to be 100% viable.

[2] = tested on: IL-6 mRNA expression; test: Inhibition of LPS-induced IL-6 mRNA expression in HUVEC; assay type: cell-based, Human; conditions: 10 μM for 30 min, then LPS 24 hours
Method: as §1
(§2) HUVEC and NRK52E cells were pre-incubated with SUL compounds (10 μM) for 30 min and subsequently exposed to LPS for 24 hours under standard culture conditions. Cells were lysed in triZOL reagens (Invitrogen) and total RNA isolated according to manufacturers' instruction. 1 μg total RNA per sample was reverse transcribed using the FirstAid Reverse Transcription Kit (ThermoFisher). Copy-DNA equivalents of 5 ng total RNA were amplified on a ViiA7 Real-time PCR system (ThermoFisher, Waltham, Mass.) using iTaq Universal SYBR Green Supermix (Bio-Rad, Hercules, Calif.) and primers specific for tumor necrosis factor alpha, interleukin 1 beta, interleukin-6 and beta actin as loading control. Amplification was performed for 40 cycles of 95° C. for 30 s, 60° C. for 1 min. Relative mRNA expression was calculated as 2^−(Cq^gene^−Cq^reference^) and normalized to unstimulated control cells (100% inhibition) and vehicle-treated and LPS exposed cells (0% inhibition). The following primers were used: […]

[3] = tested on: IL-6 mRNA expression; test: Endothelial inflammatory activation after endotoxin, IL-6 mRNA (Example 5); assay type: cell-based, Human; conditions: HUVEC; 10 μM for 30 min
Method: as §1
(§3) HUVEC cells were lysed in triZOL reagens (Invitrogen) and total RNA isolated according to manufacturers' instruction. 1 μg total RNA per sample was reverse transcribed using the FirstAid Reverse Transcription Kit (ThermoFisher). Copy-DNA equivalents of 5 ng total RNA were amplified on a ViiA7 Real-time PCR system (ThermoFisher, Waltham, Mass.) using iTaq Universal SYBR Green Supermix (Bio-Rad, Hercules, Calif.) and primers specific for tumor necrosis factor alpha (TNFα; sense 5′-[…]-3′, antisense 5′-[…]-3′), interleukin 1 beta (IL-1β; sense 5′-[…]-3′, antisense 5′-[…]-3′), interleukin-6 (IL-6; sense 5′-[…]-3′, antisense 5′-[…]-3′) and beta actin (ACTB; sense 5′-[…]-3′, antisense 5′-[…]-3′) as loading control. Amplification was performed for 40 cycles of 95° C. for 30 s, 60° C. for 1 min. Relative mRNA expression was calculated according to the δδCt-method.

[4] = tested on: IL-1β mRNA expression; test: Inhibition of LPS-induced IL-1β mRNA expression in NRK52E; assay type: cell-based, Rat; conditions: 10 μM for 30 min, then LPS 24 hours
Method: Rat kidney epithelial cells (ATCC #CRL-1571) were maintained in DMEM medium containing 10% fetal bovine serum, and 1% Penicillin-Streptomycin solution (Sigma-Aldrich). NRK52E cells were passaged by trypsinization when the cultures reached a confluency of 70%. For all experiments, NRK52E cells were seeded at 0.6·10^5 cells/cm^2 and allowed to adhere for 24 hours.
as §2

[5] = tested on: expression of IL-6, TNF-α, IL-1β and ICAM in the kidney; test: CLP sepsis model, kidney RNA expression by qRT-PCR; assay type: in vivo; conditions: CLP mice; SUL-138 5 mg/kg s.c.; 24 hours
Method: To induce sepsis, the standard cecal ligation and puncture (CLP) model was used. Animals were anesthetized by subcutaneous injection of xylazine/ketamine (100/10 mg/kg), followed by administration of buprenorphine (0.1 mg/kg) as analgesic. After confirmation of anesthesia by lack of response to paw pinch and eye reflex, the abdomen was shaved, cleaned, and de-germed using a povidone-iodine solution before a 1-cm midline incision was made. The cecum was ligated with a 6-0 suture at half the distance between distal pole and the base of the cecum and punctured once with a 21-Gauge needle (‘through-and-through’ from mesenteric toward anti-mesenteric direction) which is an accepted model for ‘mid-grade’ sepsis. A small amount of stool (2-3 mm) was then extruded to ensure wound patency. The cecum was repositioned, thereby taking care not to spill fecal material on the wound edges, followed by closure of the abdomen by running sutures to the abdominal musculature and short interrupted sutures to the skin. Next, 1 ml of saline (warmed, 0.9% NaCl s.c.) was administered to compensate for the expected relative volume depletion due to the onset of sepsis.
Mice in the SUL-138 treated groups were injection with SUL-138 (dissolved in saline, 5 mg/kg, s.c.) at 2 hours before and 8 hours after surgery, while mice in the other groups were injected with an equal volume of saline at these time-points.
In order to assess the expression of proinflammatory cytokines and adhesion molecules in the kidney, including IL-6, TNF-α, IL-1β and ICAM, RNA was isolated from approximately 30 mg kidney tissue using Nucleospin RNA (Machery-Nagel, Duren, Germany), quantified using nanodrop spectrophotometer ND-1000 and converted into copy DNA (cDNA), using 0.5 μg RNA in each sample. For RNA isolation from cells, the same kit was used with slight adaptations: TRIzol and chloroform as lysis buffer, instead of the lysis buffer from the kit. Olignucleotide primers were designed using NCBI Primer Blast and Clone Manager (see appendix) and validated by assessing the efficiency, melting temperature and curve using qRT-PCR and size on gel electrophoresis of the naive and enzymatically digested products. qRT-PCR amplification was performed using the following thermal profile: 95° C. for 2 min, followed by 40 cycli of 95° C. for 15 sec, 58° C. for 30 sec and 72° C. 30 sec. All reactions were carried out in triplicate and a standard curve for each primer was used.

[6] = tested on: TNFα mRNA expression; test: Endothelial inflammatory activation after endotoxin, TNFα mRNA (Example 5); assay type: cell-based, Human; conditions: HUVEC; 10 μM for 30 min
Method: as §1, §3

For Cc1c(C)c2c(c(C)c1O)CC[C@@](C)(C(=O)N1CCN(CCO)CC1)O2 [SUL-138, (S)-(6-hydroxy-2,5,7,8-tetramethylchroman-2-yl)(4-(2-hydroxyethyl)piperazin-1-yl)methanone], the “reduction in cell viability versus normothermic control cells” value [1] was ~15%, the “inhibition of LPS-induced mRNA expression of IL-6” value [2] was 68.3 ± 6.7 % and the “LPS-induced mRNA expression of IL-6” value [3] was “precluded the LPS-induced increase in IL-1β and IL-6”. For the same compound, the “inhibition of LPS-induced mRNA expression of IL-1β” value [4] was 65.2 ± 8.9 %, the “ICAM expression in the kidney (RNA)” value [5] was “lower than in the untreated CLP animals but the difference was not statistically significant” and the “IL-1β expression in the kidney (RNA)” value [5] was “lower than in the untreated CLP animals but the difference was not statistically significant”. The “IL-6 expression in the kidney (RNA)” value [5] was “fully prevented the rise in IL-6 expression”, the “TNF-α expression in the kidney (RNA)” value [5] was “lower than in the untreated CLP animals but the difference was not statistically significant” and the “LPS-induced mRNA expression of TNFα” value [6] was “precludes the induction of mRNA expression of the pro-inflammatory cytokine TNFα”.
